Experimental data reported in ChEMBL document CHEMBL2396621, “Design, synthesis and biological evaluation of 2-mercapto-3-phenethylquinazoline bearing anilide fragments as potential antitumor agents: molecular docking study” (2013).

What was measured:
Type in all cases: functional
HOP-62 = assay: Cytotoxicity against human HOP62 cells assessed as growth inhibition at 10 uM after 48 hrs by coulter counter analysis; conditions: HOP-62, 48 h, read-out: GI
A549 = assay: Cytotoxicity against human A549 cells assessed as growth inhibition at 10 uM after 48 hrs by coulter counter analysis; conditions: A549, 48 h, read-out: GI
MDA-MB-468 = assay: Cytotoxicity against human MDA-MB-468 cells assessed as growth inhibition at 10 uM after 48 hrs by coulter counter analysis; conditions: MDA-MB-468, 48 h, read-out: GI
MDA-MB-231 = assay: Cytotoxicity against human MDA-MB-231 cells assessed as growth inhibition at 10 uM after 48 hrs by coulter counter analysis; conditions: MDA-MB-231, 48 h, read-out: GI
SN12C = assay: Cytotoxicity against human SN12C cells assessed as growth inhibition at 10 uM after 48 hrs by coulter counter analysis; conditions: read-out: GI
CAKI-1 = assay: Cytotoxicity against human Caki1 cells assessed as growth inhibition at 10 uM after 48 hrs by coulter counter analysis; conditions: CAKI-1, 48 h, read-out: GI
A498 = assay: Cytotoxicity against human A498 cells assessed as growth inhibition at 10 uM after 48 hrs by coulter counter analysis; conditions: A498, 48 h, read-out: GI
[1] = Cytotoxicity against human NCI-ADR-RES cells assessed as growth inhibition at 10 uM after 48 hrs by coulter counter analysis; conditions: read-out: GI
OVCAR-5 = assay: Cytotoxicity against human OVCAR5 cells assessed as growth inhibition at 10 uM after 48 hrs by coulter counter analysis; conditions: OVCAR-5, 48 h, read-out: GI
MDA-MB-435 = assay: Cytotoxicity against human MDA-MB-435 cells assessed as growth inhibition at 10 uM after 48 hrs by coulter counter analysis; conditions: MDA-MB-435, 48 h, read-out: GI
M14 = assay: Cytotoxicity against human M14 cells assessed as growth inhibition at 10 uM after 48 hrs by coulter counter analysis; conditions: M14, 48 h, read-out: GI
Malme-3M = assay: Cytotoxicity against human MALME-3M cells assessed as growth inhibition at 10 uM after 48 hrs by coulter counter analysis; conditions: read-out: GI
SW-620 = assay: Cytotoxicity against human SW620 cells assessed as growth inhibition at 10 uM after 48 hrs by coulter counter analysis; conditions: SW-620, 48 h, read-out: GI
HCT-15 = assay: Cytotoxicity against human HCT15 cells assessed as growth inhibition at 10 uM after 48 hrs by coulter counter analysis; conditions: HCT-15, 48 h, read-out: GI
HCC 2998 = assay: Cytotoxicity against human HCC2998 cells assessed as growth inhibition at 10 uM after 48 hrs by coulter counter analysis; conditions: HCC 2998, 48 h, read-out: GI

## CC(=O)c1ccc(NC(=O)CSc2nc3ccccc3c(=O)n2CCc2ccccc2)cc1
HOP-62
  inhibition of growth at 10 µM: 22%
A549
  inhibition of growth at 10 µM: 29%
MDA-MB-468
  inhibition of growth at 10 µM: 14%
MDA-MB-231
  inhibition of growth at 10 µM: 39%
SN12C
  inhibition of growth at 10 µM: 13%
CAKI-1
  inhibition of growth at 10 µM: 16%
A498
  inhibition of growth at 10 µM: < 10%
[1]
  inhibition of growth at 10 µM: 33%
OVCAR-5
  inhibition of growth at 10 µM: 10%
MDA-MB-435
  inhibition of growth at 10 µM: 23%
M14
  inhibition of growth at 10 µM: 21%
Malme-3M
  inhibition of growth at 10 µM: 13%
SW-620
  inhibition of growth at 10 µM: 14%
HCT-15
  inhibition of growth at 10 µM: 21%
HCC 2998
  inhibition of growth at 10 µM: < 10%

## O=C(CSc1nc2ccccc2c(=O)n1CCc1ccccc1)NCc1ccccc1
HOP-62
  inhibition of growth at 10 µM: 36%
A549
  inhibition of growth at 10 µM: 17%
MDA-MB-468
  inhibition of growth at 10 µM: < 10%
MDA-MB-231
  inhibition of growth at 10 µM: 37%
SN12C
  inhibition of growth at 10 µM: 20%
CAKI-1
  inhibition of growth at 10 µM: 32%
A498
  inhibition of growth at 10 µM: < 10%
[1]
  inhibition of growth at 10 µM: 19%
OVCAR-5
  inhibition of growth at 10 µM: < 10%
MDA-MB-435
  inhibition of growth at 10 µM: 19%
M14
  inhibition of growth at 10 µM: 14%
Malme-3M
  inhibition of growth at 10 µM: 14%
SW-620
  inhibition of growth at 10 µM: < 10%
HCT-15
  inhibition of growth at 10 µM: 20%
HCC 2998
  inhibition of growth at 10 µM: < 10%

## CCOC(=O)c1ccc(NC(=O)CSc2nc3ccccc3c(=O)n2CCc2ccccc2)cc1
HOP-62
  inhibition of growth at 10 µM: 45%
A549
  inhibition of growth at 10 µM: 27%
MDA-MB-468
  inhibition of growth at 10 µM: 18%
MDA-MB-231
  inhibition of growth at 10 µM: 48%
SN12C
  inhibition of growth at 10 µM: < 10%
CAKI-1
  inhibition of growth at 10 µM: 19%
A498
  inhibition of growth at 10 µM: < 10%
[1]
  inhibition of growth at 10 µM: 19%
OVCAR-5
  inhibition of growth at 10 µM: 15%
MDA-MB-435
  inhibition of growth at 10 µM: 16%
M14
  inhibition of growth at 10 µM: 21%
Malme-3M
  inhibition of growth at 10 µM: 23%
SW-620
  inhibition of growth at 10 µM: 11%
HCT-15
  inhibition of growth at 10 µM: < 10%
HCC 2998
  inhibition of growth at 10 µM: < 10%

## O=C(CSc1nc2ccccc2c(=O)n1CCc1ccccc1)Nc1ccccc1C(=O)O
HOP-62
  inhibition of growth at 10 µM: 49%
A549
  inhibition of growth at 10 µM: 46%
MDA-MB-468
  inhibition of growth at 10 µM: 14%
MDA-MB-231
  inhibition of growth at 10 µM: 45%
SN12C
  inhibition of growth at 10 µM: < 10%
CAKI-1
  inhibition of growth at 10 µM: < 10%
A498
  inhibition of growth at 10 µM: 26%
[1]
  inhibition of growth at 10 µM: 34%
OVCAR-5
  inhibition of growth at 10 µM: < 10%
MDA-MB-435
  inhibition of growth at 10 µM: 35%
M14
  inhibition of growth at 10 µM: 12%
Malme-3M
  inhibition of growth at 10 µM: 18%
SW-620
  inhibition of growth at 10 µM: 21%
HCT-15
  inhibition of growth at 10 µM: 12%
HCC 2998
  inhibition of growth at 10 µM: < 10%

## O=C(CSc1nc2ccccc2c(=O)n1CCc1ccccc1)Nc1cc(Cl)ccc1C(=O)O
HOP-62
  inhibition of growth at 10 µM: < 10%
A549
  inhibition of growth at 10 µM: < 10%
MDA-MB-468
  inhibition of growth at 10 µM: < 10%
MDA-MB-231
  inhibition of growth at 10 µM: < 10%
SN12C
  inhibition of growth at 10 µM: < 10%
CAKI-1
  inhibition of growth at 10 µM: 17%
A498
  inhibition of growth at 10 µM: 10%
[1]
  inhibition of growth at 10 µM: < 10%
OVCAR-5
  inhibition of growth at 10 µM: < 10%
MDA-MB-435
  inhibition of growth at 10 µM: < 10%
M14
  inhibition of growth at 10 µM: < 10%
Malme-3M
  inhibition of growth at 10 µM: < 10%
SW-620
  inhibition of growth at 10 µM: < 10%
HCT-15
  inhibition of growth at 10 µM: < 10%
HCC 2998
  inhibition of growth at 10 µM: < 10%

## O=C(CSc1nc2ccccc2c(=O)n1CCc1ccccc1)Oc1ccc(Cl)cc1
HOP-62
  inhibition of growth at 10 µM: 10%
A549
  inhibition of growth at 10 µM: < 10%
MDA-MB-468
  inhibition of growth at 10 µM: < 10%
MDA-MB-231
  inhibition of growth at 10 µM: 33%
SN12C
  inhibition of growth at 10 µM: < 10%
CAKI-1
  inhibition of growth at 10 µM: 27%
A498
  inhibition of growth at 10 µM: 10%
[1]
  inhibition of growth at 10 µM: 10%
OVCAR-5
  inhibition of growth at 10 µM: < 10%
MDA-MB-435
  inhibition of growth at 10 µM: < 10%
M14
  inhibition of growth at 10 µM: < 10%
Malme-3M
  inhibition of growth at 10 µM: < 10%
SW-620
  inhibition of growth at 10 µM: < 10%
HCT-15
  inhibition of growth at 10 µM: 25%
HCC 2998
  inhibition of growth at 10 µM: < 10%
